Experiments:
Assay type in all cases: in vivo
[1] = system: barnyardgrass (Echinachloa crus-galli, ECC); test: Pre-emerge test, barnyardgrass; conditions: 250 g ai/ha, 14 days after application, rating scale 0-100 (0 no damage, 100 complete death)
Summary of the method: (§1)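 Efficacy values are 0–100 phytotoxicity scores (0 no damage, 100 complete death) recorded 14 days post-application. Spray was delivered pre-emergence at 187 l/ha with rates of 8–1000 g ai/ha, using acetone as solvent.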

[2] = system: johnsongrass (Sorghum halepense, SOH); test: Post-emerge test, johnsongrass; conditions: 250 g ai/ha, 14 days after application, rating scale 0-100 (0 no damage, 100 complete death)
Summary of the method: (§2)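 Values are visual phytotoxicity ratings on a 0-100 scale taken 14 days after application, where 0 means no damage and 100 complete death. Compounds in acetone with 0.25% v/v non-ionic surfactant were track-sprayed at 187 l/ha, 8-1000 g ai/ha, onto plants at the 2-3 leaf stage.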

[3] = system: velvetleaf (Abutilon theophrasti, ABT); test: Post-emerge test, velvetleaf; conditions: 250 g ai/ha, 14 days after application, rating scale 0-100 (0 no damage, 100 complete death)
Summary of the method: as §2

[4] = system: sicklepod (Cassia obtusifolia, CAO); test: Pre-emerge test, sicklepod; conditions: 250 g ai/ha, 14 days after application, rating scale 0-100 (0 no damage, 100 complete death)
Summary of the method: as §1

[5] = system: green foxtail (Setaria viridis, SEV); test: Pre-emerge test, green foxtail; conditions: 250 g ai/ha, 14 days after application, rating scale 0-100 (0 no damage, 100 complete death)
Summary of the method: as §1

[6] = system: soybean (Glycine max L., var. Pella 86, SOY); test: Post-emerge test, crop damage soybean; conditions: post-emerge, 250 g ai/ha, 14 days after application, rating scale 0-100 (0 no damage, 100 complete death)
Summary of the method: as §2

[7] = system: large crabgrass (Digitaria sanguinalis, DIS); test: Pre-emerge test, large crabgrass; conditions: 250 g ai/ha, 14 days after application, rating scale 0-100 (0 no damage, 100 complete death)
Summary of the method: as §1

[8] = system: wheat (Triticum aestivum); test: Post-emerge test, crop damage wheat; conditions: post-emerge, 250 g ai/ha, 14 days after application, rating scale 0-100 (0 no damage, 100 complete death)
Summary of the method: as §2

[9] = system: wheat (Triticum aestivum); test: Pre-emerge test, crop damage wheat; conditions: pre-emerge, 250 g ai/ha, 14 days after application, rating scale 0-100 (0 no damage, 100 complete death)
Summary of the method: as §1

[10] = system: common ragweed (Ambrosia artemisiifolia L., AML); test: Post-emerge test, common ragweed; conditions: 250 g ai/ha, 14 days after application, rating scale 0-100 (0 no damage, 100 complete death)
Summary of the method: as §2

[11] = system: cocklebur (Xanthium strumariunt, XAS); test: Post-emerge test, cocklebur; conditions: 250 g ai/ha, 14 days after application, rating scale 0-100 (0 no damage, 100 complete death)
Summary of the method: as §2

[12] = system: sicklepod (Cassia obtusifolia, CAO); test: Post-emerge test, sicklepod; conditions: 250 g ai/ha, 14 days after application, rating scale 0-100 (0 no damage, 100 complete death)
Summary of the method: as §2

[13] = system: common ragweed (Ambrosia artemisiifolia L., AML); test: Pre-emerge test, common ragweed; conditions: 250 g ai/ha, 14 days after application, rating scale 0-100 (0 no damage, 100 complete death)
Summary of the method: as §1

[14] = system: barnyardgrass (Echinachloa crus-galli, ECC); test: Post-emerge test, barnyardgrass; conditions: 250 g ai/ha, 14 days after application, rating scale 0-100 (0 no damage, 100 complete death)
Summary of the method: as §2

[15] = system: ivyleaf morningglory (Ipomoea hederacea, IPH); test: Post-emerge test, ivyleaf morningglory; conditions: 250 g ai/ha, 14 days after application, rating scale 0-100 (0 no damage, 100 complete death)
Summary of the method: as §2

[16] = system: field corn (Zea mays L., var. Dekalb 535, CORN); test: Post-emerge test, crop damage field corn; conditions: post-emerge, 250 g ai/ha, 14 days after application, rating scale 0-100 (0 no damage, 100 complete death)
Summary of the method: as §2

[17] = system: lambsquarters (Chenopodium album, CHA); test: Pre-emerge test, lambsquarters; conditions: 250 g ai/ha, 14 days after application, rating scale 0-100 (0 no damage, 100 complete death)
Summary of the method: as §1

[18] = system: soybean (Glycine max L., var. Pella 86, SOY); test: Pre-emerge test, crop damage soybean; conditions: pre-emerge, 250 g ai/ha, 14 days after application, rating scale 0-100 (0 no damage, 100 complete death)
Summary of the method: as §1

[19] = system: cocklebur (Xanthium strumariunt, XAS); test: Pre-emerge test, cocklebur; conditions: 250 g ai/ha, 14 days after application, rating scale 0-100 (0 no damage, 100 complete death)
Summary of the method: as §1

[20] = system: redroot pigweed (Amaranthus retroflexus, AMR); test: Post-emerge test, redroot pigweed; conditions: 250 g ai/ha, 14 days after application, rating scale 0-100 (0 no damage, 100 complete death)
Summary of the method: as §2

[21] = system: upland rice (Oryza sp., var.Tebonnet, RICE); test: Post-emerge test, crop damage upland rice; conditions: post-emerge, 250 g ai/ha, 14 days after application, rating scale 0-100 (0 no damage, 100 complete death)
Summary of the method: as §2

[22] = system: velvetleaf (Abutilon theophrasti, ABT); test: Pre-emerge test, velvetleaf; conditions: 250 g ai/ha, 14 days after application, rating scale 0-100 (0 no damage, 100 complete death)
Summary of the method: as §1

[23] = system: lambsquarters (Chenopodium album, CHA); test: Post-emerge test, lambsquarters; conditions: 250 g ai/ha, 14 days after application, rating scale 0-100 (0 no damage, 100 complete death)
Summary of the method: as §2

[24] = system: green foxtail (Setaria viridis, SEV); test: Post-emerge test, green foxtail; conditions: 250 g ai/ha, 14 days after application, rating scale 0-100 (0 no damage, 100 complete death)
Summary of the method: as §2

[25] = system: redroot pigweed (Amaranthus retroflexus, AMR); test: Pre-emerge test, redroot pigweed; conditions: 250 g ai/ha, 14 days after application, rating scale 0-100 (0 no damage, 100 complete death)
Summary of the method: as §1

[26] = system: johnsongrass (Sorghum halepense, SOH); test: Pre-emerge test, johnsongrass; conditions: 250 g ai/ha, 14 days after application, rating scale 0-100 (0 no damage, 100 complete death)
Summary of the method: as §1

[27] = system: field corn (Zea mays L., var. Dekalb 535, CORN); test: Pre-emerge test, crop damage field corn; conditions: pre-emerge, 250 g ai/ha, 14 days after application, rating scale 0-100 (0 no damage, 100 complete death)
Summary of the method: as §1

[28] = system: ivyleaf morningglory (Ipomoea hederacea, IPH); test: Pre-emerge test, ivyleaf morningglory; conditions: 250 g ai/ha, 14 days after application, rating scale 0-100 (0 no damage, 100 complete death)
Summary of the method: as §1

[29] = system: upland rice (Oryza sp., var.Tebonnet, RICE); test: Pre-emerge test, crop damage upland rice; conditions: pre-emerge, 250 g ai/ha, 14 days after application, rating scale 0-100 (0 no damage, 100 complete death)
Summary of the method: as §1

[30] = system: large crabgrass (Digitaria sanguinalis, DIS); test: Post-emerge test, large crabgrass; conditions: 250 g ai/ha, 14 days after application, rating scale 0-100 (0 no damage, 100 complete death)
Summary of the method: as §2

Structure (SMILES)	Pre-emerge Herbicidal Activity ECC (phytotoxicity rating) [1]	Post-emerge Herbicidal Activity SOH (phytotoxicity rating) [2]	Post-emerge Herbicidal Activity ABT (phytotoxicity rating) [3]	Pre-emerge Herbicidal Activity CAO (phytotoxicity rating) [4]	Pre-emerge Herbicidal Activity SEV (phytotoxicity rating) [5]	Post-emerge crop damage SOY (phytotoxicity rating) [6]	Pre-emerge Herbicidal Activity DIS (phytotoxicity rating) [7]	Post-emerge crop damage WHEAT (phytotoxicity rating) [8]	Pre-emerge crop damage WHEAT (phytotoxicity rating) [9]	Post-emerge Herbicidal Activity AML (phytotoxicity rating) [10]	Post-emerge Herbicidal Activity XAS (phytotoxicity rating) [11]	Post-emerge Herbicidal Activity CAO (phytotoxicity rating) [12]	Pre-emerge Herbicidal Activity AML (phytotoxicity rating) [13]	Post-emerge Herbicidal Activity ECC (phytotoxicity rating) [14]	Post-emerge Herbicidal Activity IPH (phytotoxicity rating) [15]	Post-emerge crop damage CORN (phytotoxicity rating) [16]	Pre-emerge Herbicidal Activity CHA (phytotoxicity rating) [17]	Pre-emerge crop damage SOY (phytotoxicity rating) [18]	Pre-emerge Herbicidal Activity XAS (phytotoxicity rating) [19]	Post-emerge Herbicidal Activity AMR (phytotoxicity rating) [20]	further results
Cc1nn(-c2c(F)cc3c4c2NC(=O)C(C)N4C(=O)CO3)c(=O)n1C(F)F (stereo not drawn) [1-74]	98	0	55	75	100	0	99	0	98	55	10	0	80	0	0	0	99	95	98	60	Post-emerge crop damage RICE (phytotoxicity rating) [21]: 0; Pre-emerge Herbicidal Activity ABT (phytotoxicity rating) [22]: 100; Post-emerge Herbicidal Activity CHA (phytotoxicity rating) [23]: 65; Post-emerge Herbicidal Activity SEV (phytotoxicity rating) [24]: 65; Pre-emerge Herbicidal Activity AMR (phytotoxicity rating) [25]: 98; Pre-emerge Herbicidal Activity SOH (phytotoxicity rating) [26]: 99; Pre-emerge crop damage CORN (phytotoxicity rating) [27]: 100; Pre-emerge Herbicidal Activity IPH (phytotoxicity rating) [28]: 95; Pre-emerge crop damage RICE (phytotoxicity rating) [29]: 99; Post-emerge Herbicidal Activity DIS (phytotoxicity rating) [30]: 0
CCC1C(=O)Nc2c3c(cc(F)c2-n2nc(C)n(C(F)F)c2=O)OCC(=O)N31 (stereo not drawn) [1-75]	100	0	90	65	99	55	100	0	10	45	20	0	85	0	80	0	100	98	85	0	Post-emerge crop damage RICE (phytotoxicity rating) [21]: 40; Pre-emerge Herbicidal Activity ABT (phytotoxicity rating) [22]: 100; Post-emerge Herbicidal Activity CHA (phytotoxicity rating) [23]: 80; Post-emerge Herbicidal Activity SEV (phytotoxicity rating) [24]: 0; Pre-emerge Herbicidal Activity AMR (phytotoxicity rating) [25]: 50; Pre-emerge Herbicidal Activity SOH (phytotoxicity rating) [26]: 100; Pre-emerge crop damage CORN (phytotoxicity rating) [27]: 100; Pre-emerge Herbicidal Activity IPH (phytotoxicity rating) [28]: 99; Pre-emerge crop damage RICE (phytotoxicity rating) [29]: 99; Post-emerge Herbicidal Activity DIS (phytotoxicity rating) [30]: 0
CCC1C(=O)Nc2c(-c3nn(C)c(OC(F)F)c3Cl)c(F)cc3c2N1C(=O)CO3 (stereo not drawn) [1-28]	100	80	100	100	100	100	100	50	65	100	100	100	98	99	100	25	100	40	100	100	Post-emerge crop damage RICE (phytotoxicity rating) [21]: 100; Pre-emerge Herbicidal Activity ABT (phytotoxicity rating) [22]: 100; Post-emerge Herbicidal Activity CHA (phytotoxicity rating) [23]: 100; Post-emerge Herbicidal Activity SEV (phytotoxicity rating) [24]: 100; Pre-emerge Herbicidal Activity AMR (phytotoxicity rating) [25]: 100; Pre-emerge Herbicidal Activity SOH (phytotoxicity rating) [26]: 100; Pre-emerge crop damage CORN (phytotoxicity rating) [27]: 85; Pre-emerge Herbicidal Activity IPH (phytotoxicity rating) [28]: 100; Pre-emerge crop damage RICE (phytotoxicity rating) [29]: 75; Post-emerge Herbicidal Activity DIS (phytotoxicity rating) [30]: 15

Source: US6770596B1, “Fused tricyclic compounds, process for their preparation, and herbicidal compositions containing them” (Ishihara Sangyo Kaisha Ltd., priority 2002, dated 2004)
